Molecules are shown by their SMILES. Read-outs that look alike come from different tables or passages of the source.

What is called IC50 is the midpoint of a concentration-inhibition curve.

In series [1] the test system is duplex DNA containing VdU (vinyl-modified ODN). Description: Kinetic measurements with ODNs (DNA-templated PINK-VdU reaction). As to conditions: 50 mM aq. NaOAc buffer pH 5.2 (0.8% DMSO). From the text: A) Relative fluorescence units (RFU) of PINK upon reaction with vinyl-modified ODN versus time. […] B) Normalized increase of fluorescence. C) Plot of the observed rates k′ against PINK concentration. The slope yields the rate constant k.
To characterize DNA-templated PINK-VdU reactions, a VdU-containing, palindromic 17-mer DNA oligonucleotide “ODN1” was synthesized (Table 1). The DMT-protected VdU phosphoramidite S4 (Scheme 2)^[51] was incorporated into the oligomer utilizing standard solid phase supported DNA synthesis. ODN1 was purified using reverse-phase HPLC and annealed with a complimentary strand to form a duplex. […] By tracking the fluorescence changes under pseudo-first order conditions (FIG. 8), an apparent rate constant k=590 M^−1 s^−1 was determined for the reaction between PINK and the duplex DNA containing VdU. […]
Kinetic Measurements with ODNs. Second-order rate constants for the reaction between vinyl-modified ODN and PINK were determined under pseudo first order conditions employing an excess of the tetrazine. […] Measurements were performed on a SpectraMax M5 plate reader (Molecular Devices, Sunnyvale, CA, USA) in 384 well plates (Greiner bio-one, cat-#871906; 40 μL per well). […] Samples were measured over the course of 1 h in intervals of 45 s. […] Reactions rates were calculated using pseudo first order approximations fitting the measurements to mono exponential equations. […]

The next series has as its system Jurkat cells. The series can be described thus: Resazurin combination toxicity assay. The class given is cell-based. As to conditions: Homo sapiens. The method, then: (§1) From the single toxicity experiment, it was determined that the optimal subtoxic concentration of PINK to be used for the combination toxicity assays would be 1 μM. To test how effective the vinyl-nucleosides (VdU/VdA) in combination with PINK are at killing the cells compared to the vinyl-nucleosides alone, another resazurin reduction assay was carried out.
(§2) To determine if it is possible to treat the leukemia cells with the vinyl-nucleosides and PINK simultaneously, instead of adding them sequentially, another resazurin reduction assay using the same concentrations of each compound as in the previous combination experiment was carried out, where instead the vinyl-nucleosides and PINK were added on the same day instead of on two consecutive days.
(§3) Resazurin Combination toxicity assays. MV4-11, MOLM-13 and Jurkat cells were seeded in 96-well plates at a density of 20 000 cells/well, 25 000 cells/well and 30 000 cells/well, respectively, in triplicates. For the sequential addition, the cells were first treated with the nucleosides (VdU/VdA) diluted in fresh media in 1:4 serial dilutions (˜0.01% DMSO) at concentrations of 500-0 μM, and incubated overnight. 24h post nucleoside addition, the cells were treated with 1 μM PINK diluted in fresh media (˜1% DMSO), and incubated for 24-72h. The cells were treated with resazurin, incubated and measured, as described above. For the simultaneous addition, the cells were treated with nucleosides and PINK on the same day at the same concentrations as describes above, and incubated for 24-72h.
On the technique in general: Resazurin is reduced to fluorescent resorufin, in cell work by metabolically active cells.

The test system of the next series is MV4-11 cells. The series can be described thus: Resazurin combination toxicity assay. In kind it is cell-based. As to conditions: Homo sapiens. The method, then:
as §1, §2, §3

The test system of a further series is C57BL/6J mice. Description: 5-VdU incorporation in rapidly proliferating cells in vivo. Particulars: 500 mg/kg 5-VdU i.p. on two subsequent days. The method, then:
5-VdU incorporation in rapidly proliferating cells in vivo. C57BL/6J mice were either injected with 200 μl 10% DMSO in 1× sterile PBS as a vehicle or 500 mg/kg 5-VdU i.p. on two subsequent days and then sacrificed. Experimental group size was n=6. (A) Bone marrow was explanted, fixed, permeabilized and stained with PINK for 4 h at RT. Nuclei were counterstained with Hoechst33342. A strong nuclear signal can be observed in the PINK treated sample when compared to the controls. (B) Small intestine and (C) spleen tissue was subjected to paraffin embedding and the slides where then stained with PINK for 4 h at RT. Nuclei were counterstained with Hoechst33342. Specific nuclear signals are visible in the PINK treated sample when compared to the controls. […] These cells can be stained with PINK in FFPE sections=in vivo DNA replication/proliferation reporter.

Where [2] appears, read: 48 h, variable VdU/VdA alone or with 1 μM PINK added on the same day, read-out: IC50 value (48 h) for simultaneous addition.
Where [3] appears, read: variable VdU/VdA alone or with 1 μM PINK added 24 h post nucleoside addition, read-out: IC50 value (48 h) for sequential addition.

As for `Cc1nnc(-c2ccc3cc4ccc(N(C)C)cc4nc3c2)nn1` [PINK], the “apparent rate constant k, reaction with duplex DNA containing VdU” value in series [1] (4 μM vinyl-modified ODN, PINK 3-5 eq) turned out to be 590 M⁻¹ s⁻¹. Further, the “stability of PINK under control conditions (without vinyl-modified ODN)” value in series [1] (12-20 μM PINK, 1 h) is on record as “full stability”.

Take `C=Cc1cn([C@H]2C[C@H](O)[C@@H](CO)O2)c(=O)[nH]c1=O` [VdU, 5-vinyl-2′-deoxyuridine]: the IC50 in the series on Jurkat cells (setting [2]) turned out to be 404 µM; with Jurkat cells (setting [3]), 58 µM; with MV4-11 cells (setting [2]) it was 124 µM; with MV4-11 cells (setting [3]), 60 µM. The “incorporation into rapidly dividing cells (bone marrow, small intestine, spleen; PINK staining)” value in the series with C57BL/6J mice is “incorporates into rapidly dividing cells in vivo”. In the series on C57BL/6J mice, the toxicity to mice result is reported as “non-toxic to mice at high concentrations”.

The record behind these values is US20250127774A1, “COMPOUNDS FOR LABELLING NUCLEIC ACID AND USES THEREOF” (THE ROYAL INSTITUTION FOR THE ADVANCEMENT OF …, priority 2022, published 2025).
